According to patent US20220218678A1, “USE OF 1-PHENYL-2-PYRIDINYL ALKYL ALCOHOL DERIVATIVES FOR TREATING CYSTIC FIBROSIS” (CHIESI FARMACEUTICI S.p.A., priority 2017, published 2022):

Experiments:
CFTR [1] = target: T1, CFTR (Homo sapiens, UniProt P13569, DEL508-508); assay: Western Blot, total presence of CFTR protein in CFBE41o− cells; type: cell-based; settings: 24 h exposure, VRT809 5 μM
T1 construct: cells expressing endogenous ΔF508-CFTR; endogenous in cells; host or cells: CFBE41o− human CF bronchial epithelial cell line (gift from D. C. Gruenert), homozygous ΔF508
Description: CFBE41o− and 16HBE14o− cells, respectively, were lysed in lysis buffer (50 mmol/L Tris, 150 mmol/L NaCl, 1 mmol/L EDTA, 1% Triton X-100 pH 7.4) containing protease inhibitors (Roche, Inc.). A total of 10 μg (16HBE14o−/CFBE41o−) total protein per lane was separated using 7.5% (v/v) polyacrylamide electrophoresis (PAGE) SDS gels and transferred onto nitro-cellulose membranes, that were probed with a monoclonal anti-CFTR antibody (Cell Signaling 2269; according to information provided by Cell Signaling produced by immunizing rabbits with a synthetic peptide corresponding to amino acid residues near the amino terminus of human CFTR) at a 1:500 dilution, overnight at 4° C. Membranes were re-probed with a monoclonal anti-actin (Sigma-Aldrich) to normalize for protein loading. The relative levels of CFTR were estimated by densitometry using the ImageJ program (http://rsb.info.nih.gov/ij/). The amount of band C (understood to be the fully glycosylated mature form of CFTR)) is calculated as a fraction of actin for the respective lane and reported as a fraction of the total (band C/actin). […] The values reported are expressed as means+/−SD (n=3). Data sets were compared by a t-test using GraphPad Prism. […]
FIG. 5. Presence of CFTR was evaluated by western blotting in human bronchial epithelial cell lines 16HBE14o− (non CF) and CFBE41o− (ΔF508/ΔF508) after 24 h exposure to CFTR corrector VRT809 (5 μM) in comparison with the two compounds CHF6001 and Roflumilast.
Top: average of several experiments; the relative levels of CFTR were estimated by densitometry using the ImageJ program (http://rsb.info.nih.gov/ij/). The native amount of band C is calculated as a fraction of actin for the respective lane and reported as a fraction of the total (band C/actin). The values reported are expressed as means+/−SEM (n=3). […]

ΔF508 CFTR = target: T2, ΔF508 CFTR (Homo sapiens, UniProt P13569, DEL508-508); assay: HS-YFP assay, CFTR corrector activity in CFBE41o− cells; type: cell-based; settings: 24 h exposure, VRT809 5 μM
T2 construct: cells expressing endogenous ΔF508-CFTR; endogenous in cells; host or cells: CFBE41o− human CF bronchial epithelial cell line (gift from D. C. Gruenert), homozygous ΔF508
Excerpt: The CF human bronchial epithelial cell line (CFBE41o−), homozygous for the ΔF508 mutation of the CFTR protein (Ehrhard et al., 2006, Cell Tissue Res. Vol. 323, p. 405-415; kind gift from D. C. Gruenert, California Pacific Medical Center Research Institute, San Francisco, Calif., USA) and the human bronchial epithelial cell line 16HBE14o−, wildtype (wt) for the CFTR protein (kindly provided by P. Davis, Case Western Reserve University School of Medicine, Cleveland, Ohio, USA) were maintained in EMEM (Lonza) supplemented with 10% FBS and 1% Glutamax (Sigma). […]
The CFTR activity in epithelial cells was evaluated by Yellow Fluorescence Protein (YFP) with a protocol modified from the method published by Averna et al. (PLoS One, 2013, vol. 8, e66089). […]
The potential corrector activity of roflumilast and a compound of general formula (I) (CHF6001) was evaluated in comparison with the known CFTR corrector VRT809 in the human bronchial epithelial cell line CFBE41o− (homozygous for the ΔF508 mutation of the CFTR protein) by the HS-YFP assay (FIG. 3). […]
FIG. 3. CFTR corrector activity was evaluated in CFBE41o− epithelial cell line after 24 h exposure to CFTR corrector VRT809 (5 μM), CHF6001, and Roflumilast at the indicated doses.
Values are normalized for total cell content and expressed as means±SEM (n=4) *p≤0.05 t-test (vs DMSO)

CFTR channel = target: T3, CFTR channel (Homo sapiens, UniProt P13569); assay: Transepithelial electrical resistance (TEER) assay on 16HBE14o− bronchial epithelial cells; type: cell-based; settings: 16HBE14o− cells, 10, 30 and 60 minutes; CHF6001 30 nM, Roflumilast 50 nM
T3 construct: the TEER assay was performed with these agents on 16HBE14o− bronchial epithelial cells (BEC); endogenous in cells; host or cells: 16HBE14o− human bronchial epithelial cell line (provided by P. Davis)

CFTR [2] = assay: Immunofluorescence staining of CFTR in CFBE41o− cells; type: cell-based, human; settings: CFBE41o− cells treated for 24 h, different concentrations
Description: CFBE41o− and 16HBE14o− cells, respectively, were seeded on a glass slide and, after exposure to agent or vehicle, were washed twice with PBS 1× and fixed with paraformaldehyde 4% (PFA) for 30 min and stored in PBS 1× at 4° C. until immunostaining. The fixed cells were washed twice with PBS 1×, and treated for 3 minutes with […] NH4Cl at room temperature in order to quench the aldehyde group. After another washing step, the cells were permeabilized with TRITON X100 0.1% for 5 minutes and were blocked with a solution of 1% BSA for 30 minutes. The anti-CFTR antibody M3A7, raised against an epitope corresponding to residues 1197-1480 of human CFTR (Santa Cruz) was added at 1:100 dilution for 1 hour, then the cells were stained with secondary antibody anti IgG1 488 (1:1000, Santa Cruz) and Rhodamine Phalloidine (1:500) for another hour. Finally, the cells were subjected to DAPI (Sigma Aldrich) staining (1:2000) for 1 hour at RT, then the slides were analyzed by Leica DM6000M microscope with a 40× objective. Images were processed for brightness and contrast with Adobe Photoshop.
FIG. 6: Immunofluorescence staining performed on CFBE41o− cells treated for 24 h with VX809+VX770, CHF6001 and Roflumilast at different concentrations or vehicle (DMSO).

T3 sequence (P13569 whole entry): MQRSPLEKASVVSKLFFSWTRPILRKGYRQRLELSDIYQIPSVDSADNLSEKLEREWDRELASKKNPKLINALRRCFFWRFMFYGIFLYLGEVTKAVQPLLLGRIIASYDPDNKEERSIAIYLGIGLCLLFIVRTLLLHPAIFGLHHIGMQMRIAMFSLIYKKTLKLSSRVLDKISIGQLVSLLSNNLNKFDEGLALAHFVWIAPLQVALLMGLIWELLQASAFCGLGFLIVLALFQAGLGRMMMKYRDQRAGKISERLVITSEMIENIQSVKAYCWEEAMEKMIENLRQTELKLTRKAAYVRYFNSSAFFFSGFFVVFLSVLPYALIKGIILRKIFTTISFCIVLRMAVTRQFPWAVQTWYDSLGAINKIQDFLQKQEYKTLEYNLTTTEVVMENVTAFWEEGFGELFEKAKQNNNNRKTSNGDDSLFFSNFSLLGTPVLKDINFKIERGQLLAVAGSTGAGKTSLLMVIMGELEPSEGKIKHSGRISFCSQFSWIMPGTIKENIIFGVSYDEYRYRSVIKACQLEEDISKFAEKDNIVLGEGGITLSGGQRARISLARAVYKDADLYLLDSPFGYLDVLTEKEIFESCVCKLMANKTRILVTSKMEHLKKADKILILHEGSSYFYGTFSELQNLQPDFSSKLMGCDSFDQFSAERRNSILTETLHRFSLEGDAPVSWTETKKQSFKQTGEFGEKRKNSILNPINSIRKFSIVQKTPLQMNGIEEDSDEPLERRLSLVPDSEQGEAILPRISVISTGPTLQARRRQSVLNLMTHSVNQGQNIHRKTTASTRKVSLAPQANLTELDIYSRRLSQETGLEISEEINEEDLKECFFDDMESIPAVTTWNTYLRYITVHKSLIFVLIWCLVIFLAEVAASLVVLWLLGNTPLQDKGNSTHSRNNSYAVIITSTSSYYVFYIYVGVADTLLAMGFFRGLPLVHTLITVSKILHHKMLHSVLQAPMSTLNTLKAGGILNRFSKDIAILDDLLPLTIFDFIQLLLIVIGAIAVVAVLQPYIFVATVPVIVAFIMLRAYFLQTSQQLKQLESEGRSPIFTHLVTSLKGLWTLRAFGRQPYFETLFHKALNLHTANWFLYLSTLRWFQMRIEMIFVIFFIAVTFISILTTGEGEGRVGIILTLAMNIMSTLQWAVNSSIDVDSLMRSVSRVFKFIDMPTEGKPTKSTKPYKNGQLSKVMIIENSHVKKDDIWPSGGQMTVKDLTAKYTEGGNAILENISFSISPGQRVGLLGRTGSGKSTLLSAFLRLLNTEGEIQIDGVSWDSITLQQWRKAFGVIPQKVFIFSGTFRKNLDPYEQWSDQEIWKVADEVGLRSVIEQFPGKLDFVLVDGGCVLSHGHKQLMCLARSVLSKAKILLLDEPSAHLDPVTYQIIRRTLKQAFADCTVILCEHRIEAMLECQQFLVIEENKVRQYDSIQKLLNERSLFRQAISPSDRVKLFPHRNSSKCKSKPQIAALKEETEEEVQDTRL
T1 sequence (P13569 with tags, fused parts or gaps DEL508-508): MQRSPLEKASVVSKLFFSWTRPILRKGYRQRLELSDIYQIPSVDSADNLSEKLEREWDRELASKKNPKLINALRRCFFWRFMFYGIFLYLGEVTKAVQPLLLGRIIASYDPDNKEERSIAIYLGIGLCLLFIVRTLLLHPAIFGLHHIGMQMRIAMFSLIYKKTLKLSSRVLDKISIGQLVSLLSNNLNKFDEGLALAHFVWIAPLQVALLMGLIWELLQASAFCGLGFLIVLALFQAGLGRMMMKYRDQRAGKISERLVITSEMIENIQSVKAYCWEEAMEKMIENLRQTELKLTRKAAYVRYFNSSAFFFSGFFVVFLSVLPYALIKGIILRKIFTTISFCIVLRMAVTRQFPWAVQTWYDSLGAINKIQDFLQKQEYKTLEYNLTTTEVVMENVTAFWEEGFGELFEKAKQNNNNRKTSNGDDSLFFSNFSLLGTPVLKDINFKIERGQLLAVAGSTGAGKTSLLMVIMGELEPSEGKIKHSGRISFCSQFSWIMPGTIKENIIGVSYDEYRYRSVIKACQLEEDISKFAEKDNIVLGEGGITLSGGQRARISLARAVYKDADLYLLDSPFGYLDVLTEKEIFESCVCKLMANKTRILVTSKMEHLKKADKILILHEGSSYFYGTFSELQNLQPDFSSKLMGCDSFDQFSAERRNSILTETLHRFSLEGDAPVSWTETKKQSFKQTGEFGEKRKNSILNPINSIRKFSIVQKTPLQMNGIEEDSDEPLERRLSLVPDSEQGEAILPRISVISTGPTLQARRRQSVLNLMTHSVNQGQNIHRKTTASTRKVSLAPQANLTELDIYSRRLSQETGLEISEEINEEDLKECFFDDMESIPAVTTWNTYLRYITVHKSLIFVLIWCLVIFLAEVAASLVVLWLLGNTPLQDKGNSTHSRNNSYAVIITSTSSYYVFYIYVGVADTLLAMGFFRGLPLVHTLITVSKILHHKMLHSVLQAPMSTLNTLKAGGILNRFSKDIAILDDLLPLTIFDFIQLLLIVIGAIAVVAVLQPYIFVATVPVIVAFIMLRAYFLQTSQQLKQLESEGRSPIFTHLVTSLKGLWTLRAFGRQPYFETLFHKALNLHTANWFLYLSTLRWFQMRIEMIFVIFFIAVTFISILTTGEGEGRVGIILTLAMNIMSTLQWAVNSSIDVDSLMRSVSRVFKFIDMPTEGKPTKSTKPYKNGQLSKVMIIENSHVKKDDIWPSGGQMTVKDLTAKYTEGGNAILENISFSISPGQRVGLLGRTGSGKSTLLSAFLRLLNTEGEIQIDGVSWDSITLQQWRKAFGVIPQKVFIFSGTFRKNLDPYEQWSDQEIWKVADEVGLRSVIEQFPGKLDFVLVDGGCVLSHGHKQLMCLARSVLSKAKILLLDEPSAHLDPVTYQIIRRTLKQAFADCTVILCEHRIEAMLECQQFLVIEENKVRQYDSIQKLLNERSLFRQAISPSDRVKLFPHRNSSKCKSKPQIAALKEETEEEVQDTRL
T2 sequence (P13569 with tags, fused parts or gaps DEL508-508): as above

| SMILES | total presence of CFTR protein (band C/actin) (CFTR [1]) | CFTR activity (corrector activity) compared with VRT809 (ΔF508 CFTR) | trans-epithelial electric resistance normalized to DMSO (set to 100%) (CFTR channel) | presence of CFTR by immunofluorescence (CFTR [2]) |
| --- | --- | --- | --- | --- |
| O=C(Nc1c(Cl)cncc1Cl)c1ccc(OC(F)F)c(OCC2CC2)c1 [Roflumilast, 3-cyclo-propylmethoxy-4-difluoromethoxy-N-[3,5-di-chloropyrid-4-yl]-benzamide] | up-regulation of CFTR protein | equal or superior to VRT809 | decrease the electric resistance | increase the presence of CFTR |
| CS(=O)(=O)Nc1ccc(C(=O)OC(Cc2c(Cl)c[n+]([O-])cc2Cl)c2ccc(OC(F)F)c(OCC3CC3)c2)cc1OCC1CC1 (centres unmarked) [CHF6001, 3-Cyclopropylmethoxy-4-methanesulfonylamino-benzoic acid 1-(3-cyclopropylmethoxy-4-difluoromethoxy-phenyl)-2-(3,5-dichloro-1-oxy-pyridin-4-yl)-ethyl ester] | up-regulation of CFTR protein | equal or superior to VRT809 | decrease the electric resistance | increase the presence of CFTR |
